Reference: US20040242591A1, “Oxazolidinone derivatives as pontential antimicrobials” (priority 2001, published 2004)

What was measured:
MRSA 33 = experiment: MIC by agar incorporation method, MRSA 33; assay type: cell-based, Methicillin Resistant Staphylococcus aureus; set-up: unit not given here; details: Mueller Hinton agar, 10^4 CFU/spot, 24 hours
Ent. faecalis ATCC 29212 = experiment: MIC by agar incorporation method, E.faecalis 29212; assay type: cell-based, Enterococcus faecalis; set-up: unit not given here; details: Mueller Hinton agar, 10^4 CFU/spot, 18 hours
Description: 3) Ent. faecalis ATCC 29212—Enterococcus faecalis ATCC 29212

MRSA 562 = experiment: MIC by agar incorporation method, MRSA 562; assay type: cell-based, Methicillin Resistant Staphylococcus aureus; set-up: unit not given here; details: Mueller Hinton agar, 10^4 CFU/spot, 24 hours
S.aureus ATCC 25923 = experiment: MIC by agar incorporation method, S.aureus 25923; assay type: cell-based, Staphylococus aureus; set-up: unit not given here; details: Mueller Hinton agar, 10^4 CFU/spot, 18 hours
S. pneum AB 34 = experiment: MIC by agar incorporation method, S. pneum AB 34; assay type: cell-based, Streptococcus pneumoniae; set-up: unit not given here; details: Mueller Hinton agar, 10^4 CFU/spot, 18 hours
Strep.pyog. ATCC 19615 = experiment: MIC by agar incorporation method, S.pyogenes 19615; assay type: cell-based, Streptococcus pyogenes; set-up: unit not given here; details: Mueller Hinton agar, 10^4 CFU/spot, 18 hours
Description: 6) Strep.pyog. ATCC 19615—Streptococcus pyogenes

MRSA 15187 = experiment: MIC by agar incorporation method, MRSA 15187; assay type: cell-based, Methicillin Resistant Staphylococcus aureus; set-up: unit not given here; details: Mueller Hinton agar, 10^4 CFU/spot, 24 hours
Description: 2) MRSA 15187—Methicillin Resistant Staphylococcus aureus

Strep. pne. ATCC 6303 = experiment: MIC by agar incorporation method, S. pneum 6303; assay type: cell-based, Streptococcus pneumoniae; details: Mueller Hinton agar, 10^4 CFU/spot, 18 hours
Description: 5) Strep. pne. ATCC 6303—Streptococcus pneumoniae ATCC 6303

VRE 6A = experiment: MIC by agar incorporation method, VRE 6A; assay type: cell-based, Enterococcus faecium; set-up: unit not given here; details: Mueller Hinton agar, 10^4 CFU/spot, 18 hours
Description: 4) Ent. faecium […]—Enterococcus faecium 6A Van®, Cipro®

SMILES	In Vitro (MIC) MRSA 33 (MRSA 33)	In Vitro (MIC) E.faecalis 29212 (Ent. faecalis ATCC 29212)	In Vitro (MIC) MRSA 562 (MRSA 562)	In Vitro (MIC) S.aureus 25923 (S.aureus ATCC 25923)	In Vitro (MIC) S. pneum AB 34 (S. pneum AB 34)	In Vitro (MIC) S.pyogenes 19615 (Strep.pyog. ATCC 19615)	In Vitro (MIC) MRSA 15187 (MRSA 15187)	In Vitro (MIC) S. pneum 6303 (Strep. pne. ATCC 6303)	In Vitro (MIC) VRE 6A (VRE 6A)
O=C(CCl)NC[C@H]1CN(c2ccc(N3CCN(Cc4cc(Br)c([N+](=O)[O-])s4)CC3)c(F)c2)C(=O)O1 [Compound No. 48]	4	2	4	4	16	16	4	16 µg/mL	2
CC(=O)NC[C@H]1CN(c2ccc(N3C(C)CN(C(=O)c4ccco4)CC3C)c(F)c2)C(=O)O1 (stereo partly drawn) [Compound No. 61, (S)-N-[[3-[3-Fluoro-4-[N-1-[2,6-dimethyl-4-{2-furoyl-}]-piperazinyl]phenyl]-2-oxo-5-oxazolidinyl]methyl]acetamide]	4	4	4	4	2	2	4	2 µg/mL	4
CC(=O)NC[C@H]1CN(c2ccc(N3CCN(Cc4ccc([N+](=O)[O-])n4C)CC3)c(F)c2)C(=O)O1 [Compound No. 12, (S)-N-[[3-[3-Fluoro-4-[N-1-[4-{2-pyrrole-(1-methyl-5-nitro)methyl}]piperazinyl]phenyl]-2-oxo-5-oxazolidinyl]methyl]acetamide]	4	4	4	4	8	2	4	8 µg/mL	4
O=C(CF)NC[C@H]1CN(c2ccc(N3CCC(Cc4ccc([N+](=O)[O-])o4)CC3)c(F)c2)C(=O)O1 [Compound No. 42, (S)-N-[[3-[3-Fluoro-4-[N-1-[4-{2-furyl(5-nitro)methyl}]piperinyl]phenyl]-2-oxo-5-oxazolidinyl]methyl]-fluoroacetamide]	4	4	2	4	2	0.5	2	1 µg/mL	4
O=C(NC[C@H]1CN(c2ccc(N3CCN(Cc4ccc([N+](=O)[O-])o4)CC3)c(F)c2)C(=O)O1)C(F)F [Compound No. 45, (S)-N-[[3-[3-Fluoro-4-[N-1-[4-{2-furyl(5-nitro)methyl}]piperazinyl]phenyl]-2-oxo-5-oxazolidinyl]methyl]-difluoroacetamide]	2	2	2	2	2	0.5	1	0.5 µg/mL	2

Next, values leading:

In Vitro (MIC) MRSA 33 (MRSA 33)	In Vitro (MIC) E.faecalis 29212 (Ent. faecalis ATCC 29212)	In Vitro (MIC) MRSA 562 (MRSA 562)	In Vitro (MIC) S.aureus 25923 (S.aureus ATCC 25923)	In Vitro (MIC) S. pneum AB 34 (S. pneum AB 34)	In Vitro (MIC) S.pyogenes 19615 (Strep.pyog. ATCC 19615)	In Vitro (MIC) MRSA 15187 (MRSA 15187)	In Vitro (MIC) S. pneum 6303 (Strep. pne. ATCC 6303)	In Vitro (MIC) VRE 6A (VRE 6A)	SMILES
1	1	<0.5	<0.5	8	8	<0.5	8 µg/mL	1	CC(=O)NC[C@H]1CN(c2ccc(N3CCC(N(C)C(=O)c4ccc([N+](=O)[O-])o4)C(C)C3)c(F)c2)C(=O)O1 (stereo partly drawn) [Compound No. 74, (S)-N-[[3-[3-Fluoro-4-[[3-methyl-4-{N-methyl-2-furoyl-(5-nitro)}]-aminopiperidine-1-y]phenyl]-2-oxo-5-oxazolidinyl]methyl]acetamide]
4	4	4	8	2	1	4	1 µg/mL	4	CC(=O)NC[C@H]1CN(c2ccc(N3CCN(Cc4ccoc4[N+](=O)[O-])CC3)c(F)c2)C(=O)O1 [Compound No. 18, (S)-N-[[3-[3-Fluoro-4-[N-1[4-{3-furyl(2-nitro)methyl}]piperazinyl]phenyl]-2-oxo-5-oxazolidinyl]methyl]acetamide]
1	0.125	1	1	2	0.06	1	1 µg/mL	0.25	CC(=O)NC[C@H]1CN(c2ccc(N3CCN(C(C)c4ccc([N+](=O)[O-])o4)CC3)c(F)c2)C(=O)O1 (stereo partly drawn) [Compound No. 101]
2	4	2	2	1	1	2	1 µg/mL	8	CC(=O)NC[C@H]1CN(c2ccc(N3CCN(Cc4cc(C#N)c([N+](=O)[O-])s4)CC3)c(F)c2)C(=O)O1 [Compound No. 6]
2	4	2	4	8	4	2	4 µg/mL	4	CC(=O)NC[C@H]1CN(c2ccc(N3CCC(CN(C)Cc4ccc([N+](=O)[O-])s4)CC3)c(F)c2)C(=O)O1 [Compound No. 94]
4	4	2	4	4	2	2	4 µg/mL	4	CC(=O)NC[C@H]1CN(c2ccc(N3CCC(N(C)Cc4ccc([N+](=O)[O-])s4)C3)c(F)c2)C(=O)O1 (stereo partly drawn) [Compound No. 90, (S)-N-[[3-[3-Fluoro-4-[N-1,3-[N-methyl[N-{2-thiophenyl(5-nitro)methyl}]aminopyrodinyl]phenyl]]-2-oxo-5-oxazolidinyl]methyl]acetamide]
16	8	8	16	4	4	16	4 µg/mL	8	CC(=O)NC[C@H]1CN(c2ccc(N3CCCC(=O)C3)c(F)c2)C(=O)O1 [Compound No. 96, (S)-N-[[3-{3-Fluoro-4-(3-oxo-piperidin-1-yl)-phenyl}-2-oxo-5-oxazolidinyl]methyl]acetamide]
1	<0.25	0.5	1	–	–	1	–	0.5	CC(=O)NC[C@H]1CN(c2ccc(N3CCC(CN(C)Cc4ccc([N+](=O)[O-])o4)CC3)c(F)c2)C(=O)O1 [Compound No. 95]
